{"source": "patent US20220202811A1", "about": "“TREATMENT FOR RETINOIC ACID RECEPTOR-RELATED ORPHAN RECEPTOR Ɣ (RORƔ)-DEPENDENT CANCERS” (The Regents of the University of California, priority 2019, published 2022)", "key": {"[1]": {"test_system": "primary patient-derived PDX1356 organoids", "assay": "PDX1356 organoid assay", "format": "cell-based, human", "protocol": "(§1) PDX1535 organoids were derived from a patient of pancreatic cancer. Primary patient organoids were established by digesting patient-derived xenografts for 1 hour at 37° C. in RPMI containing 2.5% FBS, 5 mg/ml Collagenase II, and 1.25 mg/ml Dispase II, followed by passage through a […] mesh filter. Cells were plated at a density of 1.5×10^5 cells per 50 μl Matrigel. After domes were solidified, growth medium was added as follows: RPMI containing 50% Wnt3a conditioned media, 10% RSpondin1-conditioned media, 2.5% FBS, 50 ng/ml EGF, 5 mg/ml Insulin, 12.5 ng/ml hydrocortisone, and 14 μM Rho Kinase Inhibitor. After establishment, organoids were passaged and maintained. Briefly, organoids were isolated using Cell Recovery Solution (Corning 354253), then dissociated into single cell suspension with TrypLE Express (ThermoFisher 12604) supplemented with 25 μg/ml DNase I (Roche) and 14 μM Rho Kinase Inhibitor (Y-27632, Sigma). Cells were split 1:2 into 20 μl domes plated on pre-warmed 48-well plates. Domes were incubated at 37° C. for 5 min, then covered with human complete organoid feeding media without Wnt3a-conditioned media.\nAs shown in FIGS. 65-66, the anti-cancer effect of JTE-151 was also tested using the organoid assay on primary patient-derived PDX1356 pancreatic cancer cells. […] The volume of organoids was expressed as relative to control."}, "[2]": {"test_system": "primary patient-derived organoids", "assay": "compilation of primary patient-derived organoids", "format": "cell-based, human"}, "[3]": {"test_system": "primary patient-derived PDX1535 organoids", "assay": "PDX1535 organoid assay", "format": "cell-based, human", "protocol": "as §1, with “media. […] The organoids were imaged and measured at the end of treatment. […] Moreover, the anti-cancer effect of JTE-151 was determined in an organoid assay using pancreatic cancer cells derived from mice bearing primary patient-derived xenografts.” for “media.”"}, "[4]": {"test_system": "KP^f/fC organoids", "assay": "KP^f/fC organoid culture assay", "format": "cell-based, mouse", "protocol": "Organoids from REM2-KP^f/fC were passaged at ˜1:2 as previously described (Boj et al., 2015). Briefly, organoids were isolated using Cell Recovery Solution (Corning 354253), then dissociated using Accumax Cell Dissociation Solution (Innovative Cell Technologies AM105), and plated in 20 μl matrigel (BD Biosciences, 354230) domes on a pre-warmed 48-well plate. After incubation at 37° C. for 5 min, domes were covered with 300 μl PancreaCult Organoid Growth Media (Stemcell Technologies). […] Organoids were grown in the presence of vehicle or SR2211 for 4 days, then imaged and quantified, n=3 independent wells plated per dose per treatment group.\nKP^f/fC organoid were derived from the REM2-KP^f/fC mice, a germline genetically engineered mouse model for pancreatic ductal adenocarcinoma with the genotype of Msi2^eGFP/Kras^LSL-G12D/+; Pdx^CRE/+; p53^f/f. Briefly, tumors from 10-12-week-old end-stage REM2-KP^f/fC mice were harvested and dissociated into a single cell suspension. Tumor cells were stained with FC block then 0.2 μg/10^6 cells anti-EpCAM APC (eBioscience). REM2+/EpCAM+ (stem) and REM2−/EpCAM+ (non-stem) cells were sorted, resuspended in 20 μl Matrigel (BD Biosciences, 354230), and plated as a dome in a pre-warmed 48-well plate. After incubation at 37° C. for 5 min, domes were covered with 300 μl PancreaCult Organoid Growth Media (Stemcell Technologies). Organoids were imaged and quantified 6 days later. All images were acquired on a Zeiss Axiovert 40 CFL. Organoids were counted and measured using ImageJ 1.51s software.\nThe derived KP^f/fC organoid were maintained and passaged at ˜1:2. Briefly, organoids were isolated using Cell Recovery Solution (Corning 354253), then dissociated using Accumax Cell Dissociation Solution (Innovative Cell Technologies AM105), and plated in 20 μl Matrigel (BD Biosciences, 354230) domes on a pre-warmed 48-well plate. After incubation at 37° C. for 5 min, domes were covered with 300 μl PancreaCult Organoid Growth Media (Stemcell Technologies).\nAbout 4,000 organoids from each of the non-germline and germline mouse models were plated as single cells in multi-well plates, as described above, and treated with JTE-151 for 4 days (FIG. 48). Organoid number and size were analyzed after treatment. […] In the quantification, different doses of JTE-151 were plotted along the horizontal axis, and the volume of organoids was expressed as relative to control along the vertical axis. […] Organoid volume was then analyzed. Different doses of JTE-151 were plotted along the horizontal axis, and the vertical axis represents relative organoid volume to control."}, "[5]": {"test_system": "tumor-bearing KP^f/fC mice", "assay": "tumor-bearing KP^f/fC mice in vivo (AZD-0284, JTE-151)", "parameters": "species or system mouse"}, "[6]": {"details": "3 μM AZD-0284 + 0.025 nM gemcitabine"}, "[7]": {"details": "6 μM AZD-0284 + 0.025 nM gemcitabine"}, "[8]": {"details": "12 μM AZD-0284 + 0.025 nM gemcitabine"}, "[9]": {"details": "AZD-0284 90 mg/kg once daily + gemcitabine 25 mg/kg once weekly, 3 weeks"}, "[10]": {"details": "30 mg/kg JTE-151 once daily for about 3 weeks (FIG. 52)"}, "[11]": {"details": "90 mg/kg JTE-151, 3 weeks, compilation (FIG. 57)"}, "[12]": {"details": "90 mg/kg JTE-151, 3 weeks, individual experiments (FIGS. 53-55)"}, "[13]": {"details": "JTE-151 at either 30 mg/kg or 90 mg/kg, 3 weeks (FIG. 58)"}}, "note": "Entries after “also recorded” stand apart in the source; their conditions may differ.", "data": [{"smiles": "CC(=O)N1Cc2cc(S(C)(=O)=O)ccc2[C@@H]1C(=O)Nc1ccc(C(O)(C(F)(F)F)C(F)(F)F)cc1", "note": "[AZD-0284]", "values": [{"measurement": "organoid volume", "setting": "[1]; 3 μM AZD-0284 + 0.05 nM gemcitabine", "result": "significant reduction; also recorded: effectively inhibited"}, {"measurement": "organoid volume", "setting": "[1]; 3 μM AZD-0284 alone", "result": "significant reduction; also recorded: effectively inhibited"}, {"measurement": "organoid volume", "setting": "[1]; 6 μM AZD-0284 + 0.05 nM gemcitabine", "result": "significant reduction; also recorded: effectively inhibited"}, {"measurement": "organoid volume", "setting": "[1]; 6 μM AZD-0284 alone", "result": "significant reduction; also recorded: effectively inhibited"}, {"measurement": "organoid growth", "setting": "[2]; AZD-0284 at 3 μM and more so at 6 μM, PDX1356 and PDX1535 (FIG. 40)", "result": "significantly inhibited"}, {"measurement": "decrease in organoid volume compared to control", "setting": "[3]; [6]", "result": 2.81, "unit": "fold"}, {"measurement": "organoid volume", "setting": "[3]; 3 μM AZD-0284 and 0.04 nM gemcitabine", "result": "significant reduction; also recorded: significant inhibition"}, {"measurement": "decrease in organoid volume compared to control", "setting": "[3]; [7]", "result": 4.72, "unit": "fold"}, {"measurement": "organoid growth", "setting": "[3]; 6 μM AZD-0284 alone", "result": "visibly inhibited"}, {"measurement": "organoid growth", "setting": "[3]; 6 μM AZD-0284 in combination with 0.025 nM gemcitabine", "result": "visibly inhibited"}, {"measurement": "decrease in organoid volume compared to control", "setting": "[3]; [8]", "result": 6.90, "unit": "fold"}, {"measurement": "organoid volume", "setting": "[3]; AZD-0284 alone, 6 μM or 12 μM (FIG. 37)", "result": "significantly reduced"}, {"measurement": "decrease in organoid volume compared to control", "setting": "[4]; [6]", "result": 3.72, "unit": "fold"}, {"measurement": "organoid growth in volume", "setting": "[4]; 3 μM AZD-0284 in combination with 0.02 nM gemcitabine", "result": "visibly decreased; also recorded: inhibited"}, {"measurement": "decrease in organoid volume compared to control", "setting": "[4]; [7]", "result": 5.81, "unit": "fold"}, {"measurement": "organoid volume", "setting": "[4]; 6 μM AZD-0284 alone", "result": "visibly reduced; also recorded: inhibited"}, {"measurement": "organoid volume", "setting": "[4]; 6 μM AZD-0284 and 0.025 nM gemcitabine combination", "result": "visibly reduced; also recorded: inhibited"}, {"measurement": "decrease in organoid volume compared to control", "setting": "[4]; [8]", "result": 10.53, "unit": "fold"}, {"measurement": "organoid growth", "setting": "[4]; AZD-0284 alone, 6 μM or 12 μM (FIG. 32)", "result": "significant inhibitory effect"}, {"measurement": "EpCam+ tumor epithelial cells", "setting": "[5]; 90 mg/kg AZD-0284 alone", "result": "loss"}, {"measurement": "EpCam+/CD133+ tumor stem cells", "setting": "[5]; 90 mg/kg AZD-0284 alone", "result": "loss"}, {"measurement": "cell number", "setting": "[5]; 90 mg/kg AZD-0284 alone", "result": "lower"}, {"measurement": "tumor mass", "setting": "[5]; 90 mg/kg AZD-0284 alone", "result": "lower"}, {"measurement": "EpCam+ tumor epithelial cells", "setting": "[5]; [9]", "result": "loss"}, {"measurement": "EpCam+/CD133+ tumor stem cells", "setting": "[5]; [9]", "result": "loss"}, {"measurement": "cell number", "setting": "[5]; [9]", "result": "lower"}]}, {"smiles": "OC(c1ccc(-c2ccc(CN3CCN(Cc4ccncc4)CC3)cc2)c(F)c1)(C(F)(F)F)C(F)(F)F", "note": "[SR2211]", "values": [{"measurement": "organoid formation", "setting": "[4]; SR2211 vs vehicle", "result": "decreased"}]}, {"smiles": "Cc1ccc(NC(=O)C[C@H](CCC(=O)O)c2noc([C@H]3C[C@@H](CC(C)(C)C)C3)c2C2CC2)c(Cl)c1", "note": "[JTE-151, (4S)-6-[(2-chloro-4-methylphenyl)amino]-4-{4-cyclopropyl-5-[cis-3-(2,2-dimethylpropyl)cyclobutyl]isoxazol-3-yl}-6-oxohexanoic acid]", "values": [{"measurement": "organoid growth in volume", "setting": "[1]; 0.3 μM JTE-151 + 0.05 nM gemcitabine", "result": "visibly decreased; also recorded: inhibited"}, {"measurement": "organoid growth in volume", "setting": "[1]; 0.3 μM JTE-151 alone", "result": "visibly decreased; also recorded: inhibited"}, {"measurement": "organoid volume", "setting": "[1]; 3 μM JTE-151 + 0.05 nM gemcitabine", "result": "visibly reduced; also recorded: inhibited"}, {"measurement": "organoid volume", "setting": "[1]; 3 μM JTE-151 alone", "result": "visibly reduced; also recorded: inhibited"}, {"measurement": "organoid growth", "setting": "[2]; JTE-151 at 0.3 μM and more so at 3 μM, PDX1356, PDX1535, PDX202, PDX204 (FIG. 68)", "result": "significantly inhibited"}, {"measurement": "organoid volume", "setting": "[3]; 3 μM JTE-151 alone (FIG. 63)", "result": "visibly reduced; also recorded: inhibited"}, {"measurement": "organoid volume", "setting": "[3]; 3 μM JTE-151 and 0.05 nM gemcitabine combination (FIG. 63)", "result": "visibly reduced; also recorded: inhibited"}, {"measurement": "organoid growth", "setting": "[3]; JTE-151 alone at 0.3 μM, 1 μM, and 3 μM (FIG. 64)", "result": "significant inhibition"}, {"measurement": "organoid volume", "setting": "[4]; JTE-151 at 0.003 μM and 0.03 μM", "result": "reduced organoid volume, although not at a statistically significant level"}, {"measurement": "organoid growth", "setting": "[4]; JTE-151 at 0.3 μM, 3 μM, 6 μM, and 9 μM", "result": "significantly inhibited"}, {"measurement": "EpCam+ tumor epithelial cells", "setting": "[5]; [10]", "result": "decrease in EpCam+ tumor epithelial cells was statistically significant"}, {"measurement": "cell number", "setting": "[5]; [10]", "result": "reduced"}, {"measurement": "EpCam+ tumor epithelial cells", "setting": "[5]; [11]", "result": "loss"}, {"measurement": "cell number", "setting": "[5]; [11]", "result": "reduced"}, {"measurement": "EpCam+ tumor epithelial cells", "setting": "[5]; [12]", "result": "decreased"}, {"measurement": "EpCam+/CD133+ tumor stem cells", "setting": "[5]; [12]", "result": "decreased"}, {"measurement": "change of cell number in the tumor", "setting": "[5]; 120 mg/kg JTE-151 regimen, mice that responded", "result": "varied"}, {"measurement": "tumor mass", "setting": "[5]; JTE-151 at 90 mg/kg (FIG. 58)", "result": "significantly reduced"}, {"measurement": "EpCam+ tumor epithelial cells", "setting": "[5]; [13]", "result": "loss"}, {"measurement": "cell number", "setting": "[5]; [13]", "result": "reduced"}]}]}
